Measured values published in US20170107207A1, “AMINOPYRAZOLONE DERIVATIVE” (DAIICHI SANKYO COMPANY, LIMITED, priority 2014, published 2017).

Key:
Format in all cases: cell-based
MCF7 = experiment: Cell growth inhibition test, MCF7; details: Homo sapiens, 72 h; MCF7, Breast cancer, 3 days, CellTiter-Glo
Method: (§1) A cell growth inhibition test was carried out by treating a cultured cancer cell line with a test compound for a given period and then counting the number of viable cells by CellTiter-Glo Luminescent Cell Viability Assay (manufactured by Promega Corp.).
(§2) The following cells were inoculated to a 384-well plate containing the compound prepared in advance at predetermined concentrations. […]
(§3) The cells thus inoculated were cultured at 37° C. for 3 days under 5% CO2. […] Then, luminescence intensity was measured using a plate reader.
(§4) The number of viable cells and luminescence intensity have been confirmed to correlate with each other. Therefore, the rate of cell growth was calculated according to the following expression: Rate of cell growth (T/C %) of a test compound-supplemented well=100×[(B−C)/(A−C)] wherein A represents the luminescence intensity (final culture date) of a test compound-free well; B represents the luminescence intensity (final culture date) of a test compound-containing well; and C represents the luminescence intensity (day of cell inoculation) of a well at the start of contact of the cells with the test compound.
(§5) T/C % at the concentration of each of the serially diluted test compounds was determined. […]

MDA-MB-231 = experiment: Cell growth inhibition test, MDA-MB-231; details: Homo sapiens, 72 h; MDA-MB-231, Breast cancer, 3 days, CellTiter-Glo
Method: as §1, §2, §3, §4, §5

D283 Med = experiment: Cell growth inhibition test, D283 Med; details: Homo sapiens, 72 h, Brain tumor Central Nerve System, 3 days, CellTiter-Glo
Method: as §1, §2, §3, §4, §5

U251 = experiment: Cell growth inhibition test, U251; details: Homo sapiens, U-251, 72 h; U251, Brain tumor Central Nerve System, 3 days, CellTiter-Glo
Method: as §1, §2, §3, §4, §5

RKO = experiment: Cell growth inhibition test, RKO; details: Homo sapiens, 72 h, Large intestine cancer, 3 days, CellTiter-Glo
Method: as §1, §2, §3, §4, §5

HT-29 = experiment: Cell growth inhibition test, HT-29; details: Homo sapiens, 72 h; HT-29, Large intestine cancer, 3 days, CellTiter-Glo
Method: as §1, §2, §3, §4, §5

HCT-15 = experiment: Cell growth inhibition test, HCT-15; details: Homo sapiens, 72 h; HCT-15, Large intestine cancer, 3 days, CellTiter-Glo
Method: as §1, §2, §3, §4, §5

SW948 = experiment: Cell growth inhibition test, SW948; details: Homo sapiens, 72 h; SW948, Large intestine cancer, 3 days, CellTiter-Glo
Method: as §1, §2, §3, §4, §5

SNU-1 = experiment: Cell growth inhibition test, SNU-1; details: Homo sapiens, SNU1, 72 h; SNU-1, Stomach cancer, 3 days, CellTiter-Glo
Method: as §1, §2, §3, §4, §5

MOLT-3 = experiment: Cell growth inhibition test, MOLT-3; details: Homo sapiens, 72 h; MOLT-3, Leukemia, 3 days, CellTiter-Glo
Method: as §1, §2, §3, §4, §5

KASUMI-1 = experiment: Cell growth inhibition test, KASUMI-1; details: Homo sapiens, 72 h; KASUMI-1, Leukemia, 3 days, CellTiter-Glo
Method: as §1, §2, §3, §4, §5

NALM-6 = experiment: Cell growth inhibition test, NALM-6; details: Homo sapiens, 72 h; NALM-6, Leukemia, 3 days, CellTiter-Glo
Method: as §1, §2, §3, §4, §5

K-562 = experiment: Cell growth inhibition test, K-562; details: Homo sapiens, K562, 72 h; K-562, Leukemia, 3 days, CellTiter-Glo
Method: as §1, §2, §3, §4, §5

OCI-LY7 = experiment: Cell growth inhibition test, OCI-LY7; details: Homo sapiens, 72 h; OCI-LY7, Lymphoma, 3 days, CellTiter-Glo
Method: as §1, §2, §3, §4, §5

KARPAS 422 = experiment: Cell growth inhibition test, KARPAS 422; details: Homo sapiens, 72 h; KARPAS 422, Lymphoma, 3 days, CellTiter-Glo
Method: as §1, §2, §3, §4, §5

DOHH-2 = experiment: Cell growth inhibition test, DOHH-2; details: Homo sapiens, 72 h; DOHH-2, Lymphoma, 3 days, CellTiter-Glo
Method: as §1, §2, §3, §4, §5

HUH-7 = experiment: Cell growth inhibition test, HUH-7; details: Homo sapiens, 72 h; HUH-7, Liver cancer, 3 days, CellTiter-Glo
Method: as §1, §2, §3, §4, §5

CALU-6 = experiment: Cell growth inhibition test, CALU-6; details: Homo sapiens, 72 h; CALU-6, Lung cancer, 3 days, CellTiter-Glo
Method: as §1, §2, §3, §4, §5

SJSA-1 = experiment: Cell growth inhibition test, SJSA-1; details: Homo sapiens, 72 h; SJSA-1, Bone and soft tissue tumor, 3 days, CellTiter-Glo
Method: as §1, §2, §3, §4, §5

SMILES	GI50 (MCF7) [nM]	GI50 (MDA-MB-231) [nM]	GI50 (D283 Med) [nM]	GI50 (U251) [nM]	GI50 (RKO) [nM]	GI50 (HT-29) [nM]	GI50 (HCT-15) [nM]	GI50 (SW948) [nM]	GI50 (SNU-1) [nM]	GI50 (MOLT-3) [nM]	GI50 (KASUMI-1) [nM]	GI50 (NALM-6) [nM]	GI50 (K-562) [nM]	GI50 (OCI-LY7) [nM]	GI50 (KARPAS 422) [nM]	GI50 (DOHH-2) [nM]	GI50 (HUH-7) [nM]	GI50 (CALU-6) [nM]	GI50 (SJSA-1) [nM]
CCOc1ccc(Cl)cc1C(=O)NCC(C)(C)CC(=O)Nc1c([C@H](C)CN(C)C)n(C)n(-c2ccccc2)c1=O [Example 68, 5-Chloro-N-[4-({5-[(1R)-2-(dimethylamino)-1-methylethyl]-1-methyl-3-oxo-2-phenyl-2,3-dihydro-1H-pyrazol-4-yl}amino)-2,2-dimethyl-4-oxobutyl]-2-ethoxybenzamide]	530	350	130	440	240	510	2700	3900	230	110	140	130	240	130	200	240	670	430	750
CCOc1ncc(Cl)cc1C(=O)NCC(C)(C)CC(=O)Nc1c([C@H](C)CN(C)C)n(C)n(-c2ccccc2)c1=O [Example 73, 5-Chloro-N-[4-({5-[(1R)-2-(dimethylamino)-1-methylethyl]-1-methyl-3-oxo-2-phenyl-2,3-dihydro-1H-pyrazol-4-yl}amino)-2,2-dimethyl-4-oxobutyl]-2-ethoxypyridine-3-carboxamide]	980	890	310	980	570	1200	4000	4200	710	190	240	330	560	370	350	630	900	780	1300
CCOc1cc(F)c(Cl)cc1C(=O)NCC(C)(C)CC(=O)Nc1c(COC)n(C)n(-c2ccccc2)c1=O [Example 113, 5-Chloro-2-ethoxy-4-fluoro-N-(4-{[5-(methoxymethyl)-1-methyl-3-oxo-2-phenyl-2,3-dihydro-1H-pyrazol-4-yl]amino}-2,2-dimethyl-4-oxobutyl)benzamide]	750	770	230	800	310	920	800	1400	580	150	230	270	630	150	450	460	360	680	870
